Results published in ChEMBL document CHEMBL1201862, “PubChem BioAssay data set” (2004).
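A five-concentration, 48-hour dose response in 96-well plates underlies each endpoint, interpolated linearly between surrounding concentrations. GI50: concentration for 50% inhibition of growth.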 Calls of active or inactive are those of the source. Cut-off read from the data, not from the text of the source: active = GI50 up to about 1.1 µM and inactive = higher.

Columns and labels:
Experiment in all cases: growth of human tumour cells (NCI), 48 h
SK-MEL-2 = system: SK-MEL-2
HOP-92 = system: HOP-92
786-0 = system: 786-0
UACC-257 = system: UACC-257
T47D = system: T47D
U-251 = system: U-251
NCI-H23 = system: NCI-H23
Hs-578T = system: Hs-578T
IGROV-1 = system: IGROV-1
SF-295 = system: SF-295
OVCAR-4 = system: OVCAR-4
PC-3 = system: PC-3
HL-60 = system: HL-60
UO-31 = system: UO-31
HOP-62 = system: HOP-62
SNB-75 = system: SNB-75
M14 = system: M14
SK-OV-3 = system: SK-OV-3
MCF7 = system: MCF7
SF-539 = system: SF-539

| SMILES | GI50 (SK-MEL-2) | GI50 (HOP-92) | GI50 (786-0) | GI50 (UACC-257) | GI50 (T47D) | GI50 (U-251) | GI50 (NCI-H23) | GI50 (Hs-578T) | GI50 (IGROV-1) | GI50 (SF-295) | GI50 (OVCAR-4) | GI50 (PC-3) | GI50 (HL-60) | GI50 (UO-31) | GI50 (HOP-62) | GI50 (SNB-75) | GI50 (M14) | GI50 (SK-OV-3) | GI50 (MCF7) | GI50 (SF-539) |
| --- | --- | --- | --- | --- | --- | --- | --- | --- | --- | --- | --- | --- | --- | --- | --- | --- | --- | --- | --- | --- |
| CC(=O)OCC1OC(O/C=C(\CN=[N+]=[N-])C(C)=O)C(OC(C)=O)C(OC(C)=O)C1OC(C)=O (stereo not given) | 16.1 µM (inactive) | 6.15 µM (inactive) | 5.38 µM (inactive) | 3.56 µM (inactive) | 3.67 µM (inactive) | 12.2 µM (inactive) | 9.44 µM (inactive) | 52.6 µM (inactive) | 15.6 µM (inactive) | 37.2 µM (inactive) | 12.5 µM (inactive) | 12 µM (inactive) | 2.03 µM (inactive) | 8.28 µM (inactive) | 25.6 µM (inactive) | 13.5 µM (inactive) | 8 µM (inactive) | 45 µM (inactive) | 7.62 µM (inactive) | – |
| NC1=NN(c2ccccc2)C2(c3ccncc3C(=O)O)C1C(N)=NN2c1ccccc1 (stereo not given) | > 100 µM (inactive) | > 100 µM (inactive) | > 100 µM (inactive) | > 100 µM (inactive) | > 100 µM (inactive) | > 100 µM (inactive) | > 100 µM (inactive) | > 100 µM (inactive) | > 100 µM (inactive) | > 100 µM (inactive) | > 100 µM (inactive) | > 100 µM (inactive) | > 100 µM (inactive) | > 100 µM (inactive) | – | > 100 µM (inactive) | > 100 µM (inactive) | > 100 µM (inactive) | > 100 µM (inactive) | > 100 µM (inactive) |
| CCN(CC)CCOC(=O)CCN1CC2CCC(CC2)C1 | > 100 µM (inactive) | > 100 µM (inactive) | > 100 µM (inactive) | > 100 µM (inactive) | > 100 µM (inactive) | > 100 µM (inactive) | > 100 µM (inactive) | > 100 µM (inactive) | > 100 µM (inactive) | > 100 µM (inactive) | > 100 µM (inactive) | > 100 µM (inactive) | > 100 µM (inactive) | > 100 µM (inactive) | – | 78.2 µM (inactive) | > 100 µM (inactive) | > 100 µM (inactive) | > 100 µM (inactive) | > 100 µM (inactive) |
| N=C(N)NS(=O)(=O)c1ccc(Nc2c3ccccc3nc3c(C(=O)NC(CO)(CO)CO)cccc23)cc1 | 19.1 µM (inactive) | 14.4 µM (inactive) | 15.7 µM (inactive) | > 100 µM (inactive) | 4.7 µM (inactive) | 12.2 µM (inactive) | 36.5 µM (inactive) | 11.2 µM (inactive) | 37.6 µM (inactive) | 16.6 µM (inactive) | > 10 µM (inactive) | 32.5 µM (inactive) | 18.9 µM (inactive) | 27.5 µM (inactive) | 13.6 µM (inactive) | 2.3 µM (inactive) | 30.6 µM (inactive) | 22 µM (inactive) | 3.44 µM (inactive) | – |
| O=C1CCN/C(=N\C(=O)C(F)(F)F)N1CCc1c[nH]c2ccccc12 | > 100 µM (inactive) | > 100 µM (inactive) | > 100 µM (inactive) | > 100 µM (inactive) | > 100 µM (inactive) | > 100 µM (inactive) | > 100 µM (inactive) | > 100 µM (inactive) | > 100 µM (inactive) | > 100 µM (inactive) | > 100 µM (inactive) | > 100 µM (inactive) | > 100 µM (inactive) | > 100 µM (inactive) | > 100 µM (inactive) | – | > 100 µM (inactive) | > 100 µM (inactive) | > 100 µM (inactive) | > 100 µM (inactive) |
| CN1CC[C@]23c4c5ccc(O)c4O[C@H]2C(O)CC[C@@]3(O)[C@H]1C5 (stereo not given in full) | > 100 µM (inactive) | > 100 µM (inactive) | > 100 µM (inactive) | > 100 µM (inactive) | > 100 µM (inactive) | > 100 µM (inactive) | > 100 µM (inactive) | > 100 µM (inactive) | > 100 µM (inactive) | > 100 µM (inactive) | > 100 µM (inactive) | > 100 µM (inactive) | > 100 µM (inactive) | > 100 µM (inactive) | > 100 µM (inactive) | – | > 100 µM (inactive) | > 100 µM (inactive) | > 100 µM (inactive) | > 100 µM (inactive) |
| COc1cc(/C=C2\N=C(c3ccccc3)N(c3nc4ccc(Sc5ccccc5)cc4[nH]3)C2=O)ccc1O | 13.5 µM (inactive) | 62.2 µM (inactive) | 21.7 µM (inactive) | 18 µM (inactive) | 27 µM (inactive) | 19.4 µM (inactive) | 26.8 µM (inactive) | 32.4 µM (inactive) | 37.8 µM (inactive) | 27.9 µM (inactive) | 30.1 µM (inactive) | 24.4 µM (inactive) | 11.2 µM (inactive) | 28.7 µM (inactive) | 42.7 µM (inactive) | 33.6 µM (inactive) | 15.6 µM (inactive) | 30.4 µM (inactive) | 17.5 µM (inactive) | – |
| Cc1sc2nc3n(sc4nc5sc(C)c(C)c5c(=O)n43)c(=O)c2c1C | > 100 µM (inactive) | > 100 µM (inactive) | > 100 µM (inactive) | > 100 µM (inactive) | 0.935 µM (active) | > 100 µM (inactive) | > 100 µM (inactive) | > 100 µM (inactive) | > 100 µM (inactive) | > 100 µM (inactive) | 63.8 µM (inactive) | > 100 µM (inactive) | 40.3 µM (inactive) | > 100 µM (inactive) | – | 4.81 µM (inactive) | > 100 µM (inactive) | > 100 µM (inactive) | 82.4 µM (inactive) | > 100 µM (inactive) |
| C=C1C(=O)OC2/C=C(\CO)C3OC3C3OC3(C)CC(OC(=O)/C(=C/C)CO)C12 (stereo not given) | > 100 µM (inactive) | > 100 µM (inactive) | 36.8 µM (inactive) | > 100 µM (inactive) | 92.9 µM (inactive) | 55.2 µM (inactive) | 60.3 µM (inactive) | > 100 µM (inactive) | > 100 µM (inactive) | > 100 µM (inactive) | 45.4 µM (inactive) | > 100 µM (inactive) | – | > 100 µM (inactive) | > 100 µM (inactive) | > 100 µM (inactive) | > 100 µM (inactive) | > 100 µM (inactive) | 34.8 µM (inactive) | 64 µM (inactive) |
| CC1C(=O)CC[C@@]2(C)C(=O)CCCC12O (stereo not given in full) | > 100 µM (inactive) | > 100 µM (inactive) | > 100 µM (inactive) | > 100 µM (inactive) | > 100 µM (inactive) | > 100 µM (inactive) | > 100 µM (inactive) | > 100 µM (inactive) | > 100 µM (inactive) | > 100 µM (inactive) | > 100 µM (inactive) | > 100 µM (inactive) | > 100 µM (inactive) | > 100 µM (inactive) | > 100 µM (inactive) | – | > 100 µM (inactive) | > 100 µM (inactive) | > 100 µM (inactive) | > 100 µM (inactive) |
